Data reported in PMC8778187, “A New Oxygen Containing Pyclen-Type Ligand as a Manganese(II) Binder for MRI and ^52Mn PET Applications: Equilibrium, Kinetic, Relaxometric, Structural and Radiochemical Studies” (Molecules, 2022).

Key:
[1] = Stability and protonation constants of Zn(II) complexes by pH-potentiometry; type: physicochemical; conditions: Zn^2+ complex; T = 25 °C, I = 0.15 M NaCl
Method: (§1) The stability and protonation constants of the metal complexes formed with H2OPC2A were determined by pH-potentiometric titrations, but, for the Cu(II) complex, UV-Vis spectrophotometric measurements were also carried out to supplement the pH-potentiometric titration data (Figures S21 and S22, Supporting Information).
(§2) Metal stock solutions were prepared from the highest analytical grade chemicals, and their concentrations were determined by complexometric titration with standardized Na2H2EDTA and eriochrome black T indicator in the presence of ascorbic acid, and potassium hydrogen tartrate for MnCl2, murexide indicator for CaCl2 and CuCl2, eriochrome black T for MgCl2 and xylenol orange in the presence of hexamethylenetetramine for the solution of ZnCl2. The concentration of the ligand stock solution was determined by pH-potentiometric titrations. The protonation constants of the ligand were determined by the pH potentiometric titrations with 0.15 M NaOH, using 0.0025 M ligand solutions. The ionic strength was set to 0.15 M by using NaCl. The titrated samples (starting volume of 6 mL) were stirred mechanically, and thermostated at 25 °C by a circulating water bath (±0.1 °C). […]
(§3) To avoid the effect of CO2, N2 gas was bubbled through the solutions during the titrations process. […] For the calibration of the pH meter, KH-phtalate (pH = 4.005) and borax (pH = 9.177) buffers were used, and the H^+ ion concentrations were calculated from the measured pH values by applying the method proposed by Irving et al.. A solution of approximately 0.01 M HCl was titrated with a 0.15 M NaOH solution (0.15 or 1.00 M NaCl), and the differences between the measured and calculated pH values (for the points with pH < 2.4) were used to calculate the (H^+) from the pH values measured in the titration experiments. […] The stability constants of the metal complexes (except for Cu(II)) were determined using the direct pH-potentiometric method, by titrating samples with 1:1 metal-to-ligand ratios (the number of fitted data pairs were between 127–212), allowing 1 min for the sample equilibration to occur. […]

[2] = Stability and protonation constants of Cu(II) complexes by pH-potentiometry and UV-Vis spectrophotometry; type: physicochemical; conditions: Cu^2+ complex, T = 25 °C, I = 0.15 M NaCl
Method: as §1, §2, §3

log KMnHL [1]: 2.08(3)
log KMnL [1]: 14.81(1)
log KMnLOH [1]: 10.95(2)
log KMnLOH [2]: 10.50(5)
log KMnHL ([2]; footnote g): 1.92(4) ^g
log KMnL ([2]; footnote g): 18.41(4) ^g
Structure (SMILES): O=C(O)CN1CCOCCN(CC(=O)O)Cc2cccc(n2)C1 [H23,9-OPC2A, 6-Oxa-3,9,15-triazabicyclo(9.3.1)pentadeca-1(15),11,13-triene-3,9-diacetic acid]
